Results on 27 molecules are retold here after ChEMBL document CHEMBL5244273, “Tuberculosis: An Overview of the Immunogenic Response, Disease Progression, and Medicinal Chemistry Efforts in the Last Decade toward the Development of Potential Drugs for Extensively Drug-Resistant Tuberculosis Strains” (J Med Chem, 2021).

Converted amounts (≈) assume the structure as drawn.

Data set [1] has as its system Mycobacterium tuberculosis. Description: Antimycobacterial activity against Mycobacterium tuberculosis H37Rv. Type of data set: functional.
Data set [2] can be described thus: Cytotoxicity against Chinese hamster CHO-K1 cells assessed as inhibition of cell growth. Format: toxicity, cell-based, Cricetulus griseus.
Data set [3] can be described thus: Selectivity index, ratio of IC50 for cytotoxicity against Chinese hamster CHO-K1 cells to MIC for antimycobacterial activity against Mycobacterium tuberculosis H37Rv. Type of data set: toxicity, cell-based. The conditions noted are these: read-out: Selectivity Index.
In data set [4] the test system is Mycobacterium tuberculosis. Description: Antitubercular activity against Mycobacterium tuberculosis H37Rv ATCC 27294 assessed as inhibition of bacterial growth by microplate alamar blue assay. Format: functional.
Data set [5] concerns Mycobacterium tuberculosis. Briefly: Antitubercular activity against Mycobacterium tuberculosis STB-FJ05349 assessed as inhibition of bacterial growth by microplate alamar blue assay. Format: functional.
In data set [6] the test system is Mycobacterium tuberculosis. Briefly: Antitubercular activity against Mycobacterium tuberculosis STB-FJ05060 assessed as inhibition of bacterial growth by microplate alamar blue assay. Format: functional.
The subject of data set [7] is Mycobacterium tuberculosis. Description: Antitubercular activity against Mycobacterium tuberculosis MDR-FJ05120 assessed as inhibition of bacterial growth by microplate alamar blue assay. Format: functional.
Data set [8] concerns Mycobacterium tuberculosis. Description: Antitubercular activity against Mycobacterium tuberculosis MDR-FJ05189 assessed as inhibition of bacterial growth by microplate alamar blue assay. Format: functional.
Data set [9] has as its system Mycobacterium tuberculosis. Description: Antitubercular activity against Mycobacterium tuberculosis XDR-FJ05195 assessed as inhibition of bacterial growth by microplate alamar blue assay. Format: functional.
The subject of data set [10] is Staphylococcus aureus. Briefly: Antibacterial activity against methicillin susceptible Staphylococcus aureus ATCC 29213. Format: functional.
In data set [11] the test system is Escherichia coli. Description: Antibacterial activity against ESBL negative Escherichia coli ATCC 25922. Format: functional.
Data set [12] concerns Staphylococcus epidermidis. Briefly: Antibacterial activity against Staphylococcus epidermidis. Format: functional.
Data set [13] concerns Mycobacterium tuberculosis. Description: Antitubercular activity against Mycobacterium tuberculosis H37Rv by resazurin microtitre assay. Type of data set: functional.
Data set [14] in a line: (§1) Cytotoxicity against African green monkey Vero cells. Type of data set: toxicity, cell-based, Chlorocebus sabaeus. Particulars: African green monkey, Vero cells.
Data set [15] has as its system Mycobacterium tuberculosis. Briefly: Antimycobacterial activity against Mycobacterium tuberculosis H37Rv assessed as inhibition of bacterial growth incubated for 5 days by alamar blue assay. Particulars: 120 h, time 5 day. Type of data set: functional.
Data set [16] in a line: Cytotoxicity against African green monkey Vero cells assessed as inhibition of cell growth incubated for 72 hrs by MTT assay. Type of data set: toxicity, cell-based, Chlorocebus sabaeus.
The subject of data set [17] is Mycobacterium tuberculosis. Description: Antimycobacterial activity against Mycobacterium tuberculosis H37Rv […]. Type of data set: functional.
A short description of data set [18]: Cytotoxicity against HEK293T cells assessed as reduction in cell viability. Type of data set: toxicity, cell-based, HEK-293T. Particulars: human.
In data set [19] the test system is Vero. The data set is described as §1. Type of data set: toxicity, cell-based, Chlorocebus sabaeus. Particulars: chlorocebus sabaeus, vero.
Data set [20] has as its system Mycobacterium tuberculosis. Description: Antimycobacterial activity against Mycobacterium tuberculosis H37Rv incubated for 2 weeks. Format: functional. Particulars: 336 h.
In data set [21] the test system is Mycobacterium tuberculosis. Description: Antimycobacterial activity against Mycobacterium tuberculosis H37Rv incubated for 3 weeks. Format: functional. The conditions noted are these: 504 h.
The subject of data set [22] is Mycobacterium tuberculosis. Briefly: Antimycobacterial activity against Mycobacterium tuberculosis H37Rv incubated for 4 weeks. The conditions noted are these: 672 h. Type of data set: functional.
The test system of data set [23] is Mycobacterium tuberculosis. Description: Antimycobacterial activity against Mycobacterium tuberculosis H37Rv incubated for 5 weeks. The conditions noted are these: 840 h. Format: functional.
In data set [24] the test system is Mycobacterium tuberculosis. Briefly: Antitubercular activity against Mycobacterium tuberculosis H37Rv assessed as inhibition of bacterial growth by alamar blue assay. Type of data set: functional.
The subject of data set [25] is Mycobacterium tuberculosis. Description: Antitubercular activity against active stage of Mycobacterium tuberculosis H37Ra. Type of data set: functional.
The test system of data set [26] is Mycobacterium tuberculosis. Briefly: Antitubercular activity against dormant stage of Mycobacterium tuberculosis H37Ra. Format: functional.

`S=c1[nH]nc(-c2ccccc2)o1`: 2.2 µg/mL (≈ 12.3 µM) was the least that counted as inhibitory in data set [1] (MIC). Further, the IC50 in data set [2] is 33.3 µg/mL (≈ 187 µM). In addition, the selectivity ratio in data set [3] was determined as 15.1.
For the molecule `O=C(Nc1nc(-c2ccccn2)cs1)c1ccc(Cl)s1`, the MIC in data set [4] was 0.08 µg/mL (≈ 0.249 µM); in [5], 0.08 µg/mL (≈ 0.249 µM); in data set [6] it was 0.08 µg/mL (≈ 0.249 µM); in data set [7], 0.25 µg/mL (≈ 0.777 µM); in data set [8], 4 µg/mL (≈ 12.4 µM); in [9] it was 0.25 µg/mL (≈ 0.777 µM). In addition, the MIC in data set [10] came out at 32 µg/mL (≈ 99.4 µM); in [11], 256 µg/mL (≈ 795 µM); in [12] it was 32 µg/mL (≈ 99.4 µM).
Consider `CCN(CC)CCOc1c(C(=O)OC)c2c3c(oc2c2ccccc12)C(=O)c1ccccc1C3=O`, for which, in [13], the MIC50 was 0.19 µg/mL (≈ 0.403 µM).
Regarding `Oc1ccc(-c2nnc(S)o2)cc1`, in [1], the MIC was determined as 0.6 µg/mL (≈ 3.09 µM). Further, the selectivity ratio in data set [3] came to 39.6.
`CC(=O)N1N=C(c2ccc3oc(-c4ccc(O)cc4)nc3c2)CC1c1cccs1` (stereo not given) had an MIC in data set [1] of 0.8 µg/mL (≈ 1.98 µM). Further, the IC50 in [14] turned out to be 32.5 µg/mL (≈ 80.6 µM).
In data set [1], `Cc1nc(C)c(-c2nnc(S)o2)s1` registered an MIC of 1.3 µg/mL (≈ 6.1 µM). For the same molecule, the IC50 in [2] is 21.7 µg/mL (≈ 102 µM).
For the molecule `Cc1cc(O)n2nc(Nc3ccc(Cl)c(Cl)c3)c(C(N)=O)c2n1`, in [15], the MIC came out at 6.25 µg/mL (≈ 17.7 µM). In addition, in [16], the IC50 at 72 h worked out at 29 µg/mL (≈ 82.4 µM).
Regarding `CC(=O)N1N=C(c2ccc3oc(NC(=O)CCl)nc3c2)CC1c1cccs1` (stereo not given), the MIC in [1] turned out to be 6.25 µg/mL (≈ 15.5 µM). In addition, the IC50 in [14] is over 62.5 µg/mL.
`Cc1ccc(NC(=O)c2c(Nc3ccc(Cl)cc3)nn3c(O)cc(C)nc23)cc1`: in data set [15], the MIC was determined as 3.12 µg/mL (≈ 7.65 µM). In data set [16], the IC50 at 72 h is 21 µg/mL (≈ 51.5 µM).
With `CC(=O)N1/C(=C/c2ccc(-c3ccc(C)cc3)cc2)C(=O)c2ccccc21`, in data set [1], the MIC90 was 2.71 µM (≈ 0.958 µg/mL) and the MIC99 was found to be 4.37 µM (≈ 1.54 µg/mL). Also, inhibition of growth in data set [17] (MIC) required 14.8 µM (≈ 5.23 µg/mL).
In data set [1], `CC(=O)N1/C(=C/c2ccc(-c3ccccc3)cc2)C(=O)c2ccccc21` returned an MIC90 of 1.32 µM (≈ 0.448 µg/mL) and an MIC99 of 2.29 µM (≈ 0.777 µg/mL). This molecule showed an MIC in data set [17] of 12.3 µM (≈ 4.17 µg/mL).
In turn, `Sc1nnc(-c2cc3ccccc3[nH]2)o1` gave an MIC in data set [1] of 1.3 µg/mL (≈ 5.98 µM). Further, the IC50 in data set [2] turned out to be 21.6 µg/mL (≈ 99.4 µM). The selectivity ratio in data set [3] came out at 16.6.
Take `COc1ccccc1NC(=O)c1c(Nc2cccc(C)c2)nn2c(O)cc(C)nc12`: the MIC in data set [15] was found to be 3.12 µg/mL (≈ 7.73 µM). Also, the IC50 at 72 h in [16] stood at 21.3 µg/mL (≈ 52.7 µM).
Turning to `Sc1nnc(-c2ccc(I)cc2)o1`, the MIC in [1] was found to be 0.9 µg/mL (≈ 2.96 µM). The IC50 in data set [2] was 46.7 µg/mL (≈ 154 µM). Besides, the selectivity ratio in data set [3] was determined as 51.8.
In the case of `CC(=O)N1/C(=C/c2ccc(Br)cc2)C(=O)c2ccccc21`, in [1], the MIC90 is 0.31 µM (≈ 0.106 µg/mL) and the MIC99 came to 0.37 µM (≈ 0.127 µg/mL). For the same molecule, the minimal inhibitory concentration (MIC) in data set [17] was 15.2 µM (≈ 5.2 µg/mL).
With `CC(=O)N1/C(=C/c2ccc(-c3ccc(Cl)cc3)cc2)C(=O)c2ccccc21`, in data set [1], the MIC90 was determined as 2.32 µM (≈ 0.867 µg/mL) and the MIC99 came to 4.05 µM (≈ 1.51 µg/mL). Moreover, the MIC in data set [17] came to 8.37 µM (≈ 3.13 µg/mL). Also, the CC50 in [18] was 7 µM.
In data set [1], `CC(=O)N1/C(=C/c2ccccc2)C(=O)c2cc(-c3ccccc3)ccc21` gave an MIC90 of 1.24 µM (≈ 0.421 µg/mL) and an MIC99 of 1.39 µM (≈ 0.472 µg/mL). Besides, the cytotoxic concentration (CC50) in [18] was 12 µM.
Consider `Sc1nnc(-c2cc(Br)co2)o1`, for which, in [1], inhibition of growth (MIC) required 1.5 µg/mL (≈ 6.07 µM). Further, the IC50 in [2] is 35.5 µg/mL (≈ 144 µM). Moreover, in [3], the selectivity ratio amounted to 25.6.
Regarding `Cc1cc(O)n2nc(Nc3ccc(F)c(F)c3)c(C(=O)Nc3ccc(F)cc3)c2n1`, the MIC in [15] was 0.8 µg/mL (≈ 1.94 µM). The IC50 at 72 h in data set [16] was found to be 13.6 µg/mL (≈ 32.8 µM).
`COc1cccc(C(=O)Nc2nc3cc(C4=NN(C(C)=O)C(c5cccs5)C4)ccc3o2)c1` (stereo not given) had an MIC in [1] of 1.6 µg/mL (≈ 3.47 µM). The same molecule came in with an IC5 in [19] of over 62.5 µg/mL.
Consider `Sc1nnc(-c2cc3ccccc3o2)o1`, for which the MIC in [1] was 1.3 µg/mL (≈ 5.96 µM). Moreover, the IC50 in data set [2] came out at 34.4 µg/mL (≈ 158 µM). Besides, the selectivity ratio in data set [3] turned out to be 26.4.
For `CC[C@@H](CO)NCCN[C@@H](CC)CO` [ETHAMBUTOL], in data set [13], 0.78 µg/mL (≈ 3.82 µM) was the least that counted as inhibitory (MIC).
Take `NNC(=O)c1ccncc1` [ISONIAZID]: the MIC in [1] was 0.5 µg/mL (≈ 3.65 µM); in data set [15], 0.5 µg/mL (≈ 3.65 µM); in [13], 0.19 µg/mL (≈ 1.39 µM); in [4], 0.125 µg/mL (≈ 0.911 µM); in data set [5], under 0.5 µg/mL; in data set [6] it was under 0.5 µg/mL. The values for the MIC in data set [7], in data set [8] and in data set [9] were 4 µg/mL (≈ 29.2 µM), under 0.5 µg/mL and over 256 µg/mL, respectively.
Take `C[C@H]1COc2c(N3CCN(C)CC3)c(F)cc3c(=O)c(C(=O)O)cn1c23.C[C@H]1COc2c(N3CCN(C)CC3)c(F)cc3c(=O)c(C(=O)O)cn1c23.O` [LEVOFLOXACIN]: the MIC in [10], in [12], in data set [20], in data set [21], in data set [22] and in data set [23] was 0.25 µg/mL each time.
For the molecule `NC(=O)c1cnccn1` [PYRAZINAMIDE], the MIC was 3.12 µg/mL (≈ 25.3 µM) in [1], 3.12 µg/mL (≈ 25.3 µM) in [15], over 200 µg/mL in data set [13] and 3.12 µg/mL (≈ 25.4 µM) in data set [24].
Regarding `CO[C@H]1/C=C/O[C@@]2(C)Oc3c(C)c(O)c4c(O)c(c(/C=N/N5CCN(C)CC5)c(O)c4c3C2=O)NC(=O)/C(C)=C\C=C\[C@H](C)[C@H](O)[C@@H](C)[C@@H](O)[C@@H](C)[C@H](OC(C)=O)[C@@H]1C` [RIFAMPIN], the MIC90 in [1] stood at 0.00291 µM (≈ 0.00239 µg/mL). The MIC99 in data set [1] came out at 0.00482 µM (≈ 0.00397 µg/mL). The MIC in [17] was 0.377 µM (≈ 0.31 µg/mL); in data set [25], 0.75 µg/mL (≈ 0.911 µM); in data set [26], 0.91 µg/mL (≈ 1.11 µM); in data set [13], 0.049 µg/mL (≈ 0.0595 µM); in [4], 0.125 µg/mL (≈ 0.152 µM); in [5], under 0.5 µg/mL. Moreover, the MIC in [6] is under 0.5 µg/mL; in data set [7], over 256 µg/mL; in data set [8], over 256 µg/mL; in data set [9], 4 µg/mL (≈ 4.86 µM).
With `CN[C@@H]1[C@H](O[C@H]2[C@H](O[C@H]3[C@H](O)[C@@H](O)[C@H](N=C(N)N)[C@@H](O)[C@@H]3N=C(N)N)O[C@@H](C)[C@]2(O)C=O)O[C@@H](CO)[C@H](O)[C@H]1O` [STREPTOMYCIN], the MIC in [1] was determined as 6.25 µg/mL (≈ 10.7 µM); in data set [15] it was 6.25 µg/mL (≈ 10.7 µM); in data set [13] it was 0.19 µg/mL (≈ 0.327 µM); in data set [24] it was 6.25 µg/mL (≈ 10.7 µM).
